Laboratory results published in patent publication US20260184691A1, “INHIBITORS AND DEGRADERS OF PIP4K PROTEIN” (Larkspur Biosciences, Inc., priority 2022, published 2026).

Target: T1, Human PIP4K2C (Homo sapiens, UniProt Q8TBX8)
T1 construct: purchased Eurofins DiscoverX 87-0007-1094
T1 sequence (Q8TBX8 1-421): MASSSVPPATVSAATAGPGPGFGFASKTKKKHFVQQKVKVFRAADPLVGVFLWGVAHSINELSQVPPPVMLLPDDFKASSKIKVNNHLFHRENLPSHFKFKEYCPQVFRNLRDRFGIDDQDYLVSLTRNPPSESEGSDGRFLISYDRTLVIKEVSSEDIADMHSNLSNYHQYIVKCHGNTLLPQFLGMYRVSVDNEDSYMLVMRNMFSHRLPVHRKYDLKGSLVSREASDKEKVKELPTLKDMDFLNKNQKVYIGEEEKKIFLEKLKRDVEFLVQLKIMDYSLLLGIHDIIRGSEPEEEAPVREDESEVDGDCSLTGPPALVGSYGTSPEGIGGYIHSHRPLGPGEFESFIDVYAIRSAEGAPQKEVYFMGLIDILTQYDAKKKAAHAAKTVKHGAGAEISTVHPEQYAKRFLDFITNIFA
Assay: Enzyme binding assay (KINOMEscan), active site-directed competition binding
Settings: 11-point dose response, duplicate, top concentration 5 micromolar; read-out: Pip4k2c Kd: IC50
In short: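 Active site-directed competition against immobilized ligand. 11-point dose response in duplicate, top concentration 5 micromolar; IC50 from Hill fit by Levenberg-Marquardt.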

IC50, < 500 nM:
O=C1CCCN1c1cncc(Nc2ncc(Cl)c(-c3cc(-c4ccccc4)[nH]n3)n2)c1 [Compound 49, 1-(5-((5-chloro-4-(5-phenyl-1H-pyrazol-3-yl)pyrimidin-2-yl)amino)pyridin-3-yl)pyrrolidin-2-one]
O=C1CCCN1c1cncc(Nc2ncc(Cl)c(-c3ccc(C4CC4)cc3)n2)c1 [Compound 13, 1-(5-((5-chloro-4-(4-cyclopropylphenyl)pyrimidin-2-yl)amino)pyridin-3-yl)pyrrolidin-2-one]
O=C1CCCN1c1cncc(Nc2ncc(Cl)c(-c3cccc(C4CCCC4)c3)n2)c1 [Compound 40, 1-(5-((5-chloro-4-(3-cyclopentylphenyl)pyrimidin-2-yl)amino)pyridin-3-yl)pyrrolidin-2-one]
CC(=O)N1CCC(c2nc(Nc3cncc(N4CCCC4=O)c3)ncc2Cl)CC1 [Compound 152, 1-(5-((4-(1-acetylpiperidin-4-yl)-5-chloropyrimidin-2-yl)amino)pyridin-3-yl)pyrrolidin-2-one]
O=C1CCCN1c1cncc(Nc2ncc(F)c(-c3ccc(=O)n(CC4CC4)c3)n2)c1 [Compound 158, 1-(cyclopropylmethyl)-5-(5-fluoro-2-((5-(2-oxopyrrolidin-1-yl)pyridin-3-yl)amino)pyrimidin-4-yl)pyridin-2(1H)-one]
CC(C)c1cc(-c2nc(Nc3cncc(N4CCCC4=O)c3)ncc2Cl)ccn1 [Compound 111, 1-(5-((5-chloro-4-(2-isopropylpyridin-4-yl)pyrimidin-2-yl)amino)pyridin-3-yl)pyrrolidin-2-one]
O=C1CCCN1c1cncc(Nc2ncc(Cl)c(N3CCc4ccccc43)n2)c1 [Compound 129, 1-(5-((5-chloro-4-(indolin-1-yl)pyrimidin-2-yl)amino)pyridin-3-yl)pyrrolidin-2-one]
O=C(C1CCCC1)N1CCC(c2nc(Nc3cncc(N4CCCC4=O)c3)ncc2Cl)CC1 [Compound 153, 1-(5-((5-chloro-4-(1-(cyclopentanecarbonyl)piperidin-4-yl)pyrimidin-2-yl)amino)pyridin-3-yl)pyrrolidin-2-one]
CCCCNC(=O)C1CCCN(c2nc(Nc3cncc(N4CCCC4=O)c3)ncc2Cl)C1 (stereo not drawn) [Compound 109, N-butyl-1-(5-chloro-2-((5-(2-oxopyrrolidin-1-yl)pyridin-3-yl)amino)pyrimidin-4-yl)piperidine-3-carboxamide]
CCCCC(=O)NC1CCCN(c2nc(Nc3cncc(N4CCCC4=O)c3)ncc2Cl)C1 (stereo not drawn) [Compound 110, N-(1-(5-chloro-2-((5-(2-oxopyrrolidin-1-yl)pyridin-3-yl)amino)pyrimidin-4-yl)piperidin-3-yl)pentanamide]
CC(C)c1cccc(-c2nc(Nc3cncc(N4CCCC4=O)c3)ncc2Cl)c1 [Compound 98, 1-(5-((5-chloro-4-(3-isopropylphenyl)pyrimidin-2-yl)amino)pyridin-3-yl)pyrrolidin-2-one]
O=C1CCCN1c1cncc(Nc2ncc(Cl)c(C3CCCN(C4CCC4)C3)n2)c1 (stereo not drawn) [Compound 145, 1-(5-((5-chloro-4-(1-cyclobutylpiperidin-3-yl)pyrimidin-2-yl)amino)pyridin-3-yl)pyrrolidin-2-one]
O=C1CCCN1c1cncc(Nc2ncc(F)c(-c3cnn(C4COC4)c3)n2)c1 [Compound 148, 1-(5-((5-fluoro-4-(1-(oxetan-3-yl)-1H-pyrazol-4-yl)pyrimidin-2-yl)amino)pyridin-3-yl)pyrrolidin-2-one]
Cc1ccc(-c2ccccc2)cc1-c1nc(Nc2cncc(N3CCCC3=O)c2)ncc1Cl [Compound 10, 1-(5-((5-chloro-4-(4-methyl-[1,1′-biphenyl]-3-yl)pyrimidin-2-yl)amino)pyridin-3-yl)pyrrolidin-2-one]
O=C1CCCN1c1cncc(Nc2ncc(Cl)c(N3CCC[C@@H](c4ccccn4)C3)n2)c1 (single isomer, unassigned) [Compound 124]
